Non-standard residues stand in square brackets, D forms with d. Residues, ends and D or L forms follow the SMILES beside them. ξ: configuration not given here. *: point of attachment. Ala(1H-tetrazol-5-yl) = N[C@@H](Cc1nnn[nH]1)C(=O)O; ξAla(tetrazol-5-yl) = NC(Cc1nnn[nH]1)C(=O)O; Isobutyryl = CC(C)C(=O)*; Nle = CCCC[C@H](N)C(=O)O; Butyryl = CCCC(=O)*
Legend:
[1] = Stability test 1: survival rate of peptide in phosphate buffer (pH 7.0) after storage, HPLC; format: physicochemical; conditions: 100 μM peptide
Description: The 1.0 mM peptide solutions were then diluted with phosphate buffer to 100 μM. […] The prepared peptide solutions were incubated for one month or 2 months in a 40° C. thermostatic bath to obtain stored samples.
Using the total weight of the aqueous peptide solution and storage vessel as the specimen weight, measurements were recorded as the specimen weights before storage and the specimen weights after storage under different storage conditions. The empty weight of the storage vessel was also measured, and the moisture permeability was determined by the following formula.
After stirring the standard sample and the stored samples with a vortex mixer, each peptide solution was transferred to an HPLC vial (Deactivated Qsert vial by Waters Co.). Reverse-phase HPLC (HPLC system: Prominence by Shimadzu Corp.) was conducted under the conditions shown in Table 3 below for analysis of the peptide solutions, and chromatograms were obtained.
(§1) The peak area value for the peptide in the chromatogram was calculated, and the survival rate (survival rate before correction for water) was calculated using formula (2). The survival rate after correction for water was also calculated from the survival rate before correction for water using formula (3) to take into account the permeability of the container.
Peptide solutions prepared by the same method as [Measuring sample preparation 1] for the peptides synthesized in Example 2 (peptides 13 to 16) were incubated for 2 weeks and 8 weeks in a thermostatic bath at 40° C. to obtain stored samples.
Peptide solutions prepared by the same method as [Measuring sample preparation 1] for the peptides synthesized in Example 2 (peptides 17 to 21) were incubated for 4 weeks in a thermostatic bath at 40° C. to obtain stored samples.
A peptide solution prepared by the same method as [Measuring sample preparation 1] for peptide 22 synthesized in Example 2 was incubated for 1 week and 4 weeks in a thermostatic bath at 40° C. to obtain stored samples.

[2] = as above; format: physicochemical; conditions: 100 μM peptide, 0.1% phosphate buffer pH 7.0, head prints 80° C., 8 weeks (Table 4)
VPAC1 receptor = biological target: T1, VPAC1 receptor (Homo sapiens, UniProt P32241); test: cAMP assay in CHO-K1 cells, VPAC1 receptor high-expressing cell line; format: cell-based; conditions: 30 minutes incubation
T1 construct: host or cells: CHO-K1
T1 sequence (P32241 31-457): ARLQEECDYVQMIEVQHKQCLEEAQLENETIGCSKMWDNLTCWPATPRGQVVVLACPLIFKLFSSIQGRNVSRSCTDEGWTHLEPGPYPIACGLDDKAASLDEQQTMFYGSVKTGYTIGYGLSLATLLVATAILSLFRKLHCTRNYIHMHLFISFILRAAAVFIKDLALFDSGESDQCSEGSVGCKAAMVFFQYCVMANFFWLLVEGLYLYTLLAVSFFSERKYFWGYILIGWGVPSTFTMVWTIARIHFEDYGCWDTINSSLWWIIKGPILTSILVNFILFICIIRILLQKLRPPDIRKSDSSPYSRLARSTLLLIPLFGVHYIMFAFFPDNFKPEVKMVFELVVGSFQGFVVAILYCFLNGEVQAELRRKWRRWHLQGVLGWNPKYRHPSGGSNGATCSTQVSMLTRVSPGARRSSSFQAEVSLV
Description: The cells were cultured for 18 to 24 hours at 37° C. in a 5% CO2 incubator, adhering the cells to the plate. […] A 5-fold dilution series was then prepared with the same Cell assay buffer and used in an assay. The cAMP assay was carried out using a Hit Hunter cAMP Assay for Biologics kit (product of DiscoveRx, Cat. No. 90-0075LM25), according to the included kit instructions. […] Next, the culture medium was removed from the CHO-K1 cell culture plate, washing was performed with PBS, and the peptide-cAMP antibody liquid mixtures were added to the cells and incubated for 30 minutes under a 5% CO2 atmosphere at 37° C. A working detection solution was then added and the culture plate was shielded from light with aluminum foil and incubated at 25° C. for 1 hour. After incubation, Solution A was added and the culture plate was shielded from light with aluminum foil and then incubated at 25° C. for 3 hours. […] The obtained value for the Relative Luminescence Unit (RLU) was analyzed with GraphPad Prism Ver 6.05 (product of Graph Pad) and the EC50 value was calculated for each peptide.

[3] = Stability test 1, sample preparation 5: survival rate of peptide in Tris buffer (pH 7.0) after storage, HPLC; format: physicochemical; conditions: 100 μM peptide; for survival rate after correction for water, 40° C. 4 week / survival rate after correction for water, 40° C. 8 week: Tris buffer pH 7.0, 40° C.; for survival rate after correction for water, 40° C. 4 week: 4 weeks (Table 13); for survival rate after correction for water, 40° C. 8 week: 8 weeks (Table 13); for survival rate after correction for water, 60° C. 1 week / survival rate after correction for water, 60° C. 2 week: Tris buffer pH 7.0, 60° C.; for survival rate after correction for water, 60° C. 1 week: 1 week (Table 13); for survival rate after correction for water, 60° C. 2 week: 2 weeks (Table 13)
Description: as §1
The prepared peptide solutions were incubated for 4 weeks or 8 weeks in a 40° C. thermostatic bath, and for one week or 2 weeks in a thermostatic bath at 60° C., to obtain stored samples.
The following gradient time was used only for peptide 30.

[4] = 100 μM peptide, Tris buffer pH 7.0, 60° C.
Description: The solution was filtered with a Chromatdisk (product of Merck Millipore, Millex-GV, 0.22 μm). The filtrate was diluted to 100 μM with Tris buffer (pH 7.0) and dispensed into a tube (Protein LoBind Tube by Eppendorf Co.). The prepared peptide solutions were incubated for 1 week or 2 weeks in a 60° C. thermostatic bath to obtain stored samples. A simultaneously prepared sample among the peptide solutions that was not stored was used as a standard sample (initial sample). The standard sample and the stored samples were stored at −30° C. until sample analysis.
• Column: XSelect CSH C18 by Waters Co., 5 μm, 4.6×250 mm • Guard column: XSelect CSH C18 by Waters Co., 5 μm, 4.6×20 mm Guard Cartridge • Detection wavelength: 220 nm • Mobile phase A: 0.1% formic acid aqueous solution • Mobile phase B: 0.1% acetonitrile formate solution • Measuring time: 20 minutes • Measuring sample injection rate: 50 μL • Flow rate: 1.0 mL/min • Column temperature: 40° C. • Sample cooler: 25° C. • Mobile phase delivery: The mixing ratio of mobile phase A and mobile phase B was varied as shown in Table 14 for linear concentration gradient control.

[5] = 0.1% phosphate buffer pH 7.0, 40° C., 4 weeks (Table 4)
[6] = phosphate buffer pH 7.0, 40° C., 4 weeks (Table 8)

**Q.** With `CC[C@H](C)[C@H](NC(=O)CNC(=O)C(Cc1nnn[nH]1)NC(=O)[C@H](CO)NC(=O)[C@@H](N)Cc1c[nH]cn1)C(=O)N[C@@H](Cc1ccccc1)C(=O)N[C@H](C(=O)NC(Cc1nnn[nH]1)C(=O)N[C@@H](CO)C(=O)N[C@@H](Cc1ccc(O)cc1)C(=O)N[C@@H](CO)C(=O)N[C@@H](CCCNC(=N)N)C(=O)N[C@@H](Cc1ccc(O)cc1)C(=O)N[C@@H](CCCNC(=N)N)C(=O)N[C@@H](CCCCN)C(=O)N[C@@H](CCC(N)=O)C(=O)N[C@@H](CCSC)C(=O)N[C@@H](C)C(=O)N[C@H](C(=O)N[C@@H](CCCCN)C(=O)N[C@@H](CCCCN)C(=O)N[C@@H](Cc1ccc(O)cc1)C(=O)N[C@@H](CC(C)C)C(=O)N[C@@H](C)C(=O)N[C@@H](C)C(=O)N[C@H](C(N)=O)C(C)C)C(C)C)[C@@H](C)O` (stereo partly drawn) [Peptide 9, HSTzGI FTTzSY SRYRK QMAVK KYLAA V] (H-HS[ξAla(tetrazol-5-yl)]GIFT[ξAla(tetrazol-5-yl)]SYSRYRKQMAVKKYLAAV-NH2) as the compound, how does the “survival rate after correction for water, 40° C. 4 week” value (shortened to “survival rate … 40° C. 4 week”) [1, 5] read?
**A.** 92.4%

**Q.** What about the “survival rate after correction for water, 80° C. 8 week” value [2] of the same compound?
**A.** 83.3%

**Q.** With `CCCC[C@H](NC(=O)[C@H](CCC(N)=O)NC(=O)[C@H](CCCCN)NC(=O)[C@H](CCCNC(=N)N)NC(=O)[C@H](Cc1ccc(O)cc1)NC(=O)[C@H](CCCNC(=N)N)NC(=O)[C@H](CO)NC(=O)[C@H](Cc1ccc(O)cc1)NC(=O)[C@H](CO)NC(=O)[C@H](Cc1nnn[nH]1)NC(=O)[C@@H](NC(=O)[C@H](Cc1ccccc1)NC(=O)[C@@H](NC(=O)CNC(=O)[C@H](Cc1nnn[nH]1)NC(=O)[C@H](CO)NC(=O)[C@H](Cc1c[nH]cn1)NC(=O)CCC)[C@@H](C)CC)[C@@H](C)O)C(=O)N[C@@H](C)C(=O)N[C@H](C(=O)N[C@@H](CCCCN)C(=O)N[C@@H](CCCCN)C(=O)N[C@@H](Cc1ccc(O)cc1)C(=O)N[C@@H](CC(C)C)C(=O)N[C@@H](C)C(=O)N[C@@H](C)C(=O)N[C@H](C(=O)N[C@@H](CC(C)C)C(N)=O)C(C)C)C(C)C` [Peptide 18] (Butyryl-HS[Ala(1H-tetrazol-5-yl)]GIFT[Ala(1H-tetrazol-5-yl)]SYSRYRKQ[Nle]AVKKYLAAVL-NH2) as the compound, how does the “survival rate … 40° C. 4 week” value [1, 6] read?
**A.** 65.1%

**Q.** And the EC50 (VPAC1 receptor)?
**A.** 0.069 nM

**Q.** Which “survival rate … 40° C. 4 week” value [1, 6] does the source give for `CCCC[C@H](NC(=O)[C@H](CCC(N)=O)NC(=O)[C@H](CCCCN)NC(=O)[C@H](CCCNC(=N)N)NC(=O)[C@H](Cc1ccc(O)cc1)NC(=O)[C@H](CCCNC(=N)N)NC(=O)[C@H](CO)NC(=O)[C@H](Cc1ccc(O)cc1)NC(=O)[C@H](CO)NC(=O)[C@H](Cc1nnn[nH]1)NC(=O)[C@@H](NC(=O)[C@H](Cc1ccccc1)NC(=O)[C@@H](NC(=O)CNC(=O)[C@H](Cc1nnn[nH]1)NC(=O)[C@H](CO)NC(=O)[C@H](Cc1c[nH]cn1)NC(=O)C(C)C)[C@@H](C)CC)[C@@H](C)O)C(=O)N[C@@H](C)C(=O)N[C@H](C(=O)N[C@@H](CCCCN)C(=O)N[C@@H](CCCCN)C(=O)N[C@@H](Cc1ccc(O)cc1)C(=O)N[C@@H](CC(C)C)C(=O)N[C@@H](C)C(=O)N[C@@H](C)C(=O)N[C@H](C(=O)N[C@@H](CC(C)C)C(N)=O)C(C)C)C(C)C` [Peptide 19, HSTzGI FTTzSY SRYRK QNIAVK KYLAA VL] (Isobutyryl-HS[Ala(1H-tetrazol-5-yl)]GIFT[Ala(1H-tetrazol-5-yl)]SYSRYRKQ[Nle]AVKKYLAAVL-NH2) here?
**A.** 68.7%

**Q.** And the EC50 (VPAC1 receptor)?
**A.** 0.069 nM

**Q.** What does the source list for `CC[C@H](C)[C@H](NC(=O)CNC(=O)[C@H](Cc1nnn[nH]1)NC(=O)[C@H](CO)NC(=O)[C@H](Cc1c[nH]cn1)NC(C)=O)C(=O)N[C@@H](Cc1ccccc1)C(=O)N[C@@H](C)C(=O)N[C@@H](Cc1nnn[nH]1)C(=O)N[C@@H](C)C(=O)N[C@@H](Cc1ccc(O)cc1)C(=O)N[C@@H](CO)C(=O)N[C@@H](CCCNC(=N)N)C(=O)N[C@@H](Cc1ccc(O)cc1)C(=O)N[C@@H](CCCNC(=N)N)C(=O)N[C@@H](CCCCN)C(=O)N[C@@H](CCC(N)=O)C(=O)N[C@@H](CC(C)C)C(=O)N[C@@H](C)C(=O)N[C@H](C(=O)N[C@@H](CCCCN)C(=O)N[C@@H](CCCCN)C(=O)N[C@@H](Cc1ccc(O)cc1)C(=O)N[C@@H](CC(C)C)C(=O)N[C@@H](C)C(=O)N[C@@H](C)C(=O)N[C@H](C(=O)N[C@@H](CC(C)C)C(N)=O)C(C)C)C(C)C` [Peptide 27, HSTzGI FATzAY SRYRK QLAVK KYLAA VL] (Ac-HS[Ala(1H-tetrazol-5-yl)]GIFA[Ala(1H-tetrazol-5-yl)]AYSRYRKQLAVKKYLAAVL-NH2)?
**A.** survival rate after correction for water, 40° C. 4 week [3]: 90.9%; survival rate after correction for water, 40° C. 8 week [3]: 84.3%; survival rate after correction for water, 60° C. 1 week [3]: 97.3%; survival rate after correction for water, 60° C. 2 week [3]: 95.5%; EC50 (VPAC1 receptor): 0.111 nM

**Q.** With `CC[C@H](C)[C@H](NC(=O)CNC(=O)[C@H](CC(=O)O)NC(=O)[C@H](CO)NC(=O)[C@@H](N)Cc1c[nH]cn1)C(=O)N[C@@H](Cc1ccccc1)C(=O)N[C@H](C(=O)N[C@@H](CC(=O)O)C(=O)N[C@@H](CO)C(=O)N[C@@H](Cc1ccc(O)cc1)C(=O)N[C@@H](CO)C(=O)N[C@@H](CCCNC(=N)N)C(=O)N[C@@H](Cc1ccc(O)cc1)C(=O)N[C@@H](CCCNC(=N)N)C(=O)N[C@@H](CCCCN)C(=O)N[C@@H](CCC(N)=O)C(=O)N[C@@H](CCSC)C(=O)N[C@@H](C)C(=O)N[C@H](C(=O)N[C@@H](CCCCN)C(=O)N[C@@H](CCCCN)C(=O)N[C@@H](Cc1ccc(O)cc1)C(=O)N[C@@H](CC(C)C)C(=O)N[C@@H](C)C(=O)N[C@@H](C)C(=O)N[C@H](C(=O)N[C@@H](CC(C)C)C(N)=O)C(C)C)C(C)C)[C@@H](C)O` [Reference Example 1, reference compound] as the compound, how does the “survival rate … 40° C. 4 week” value [1, 5] read?
**A.** 37.4%

**Q.** What about the “survival rate after correction for water, 40° C. 1 week” value ([1]; phosphate buffer pH 7.0, 40° C., 1 week (Table 10)) of the same compound?
**A.** 74.9%

**Q.** And the “survival rate after correction for water, 40° C. 2 week” value ([1]; phosphate buffer pH 7.0, 40° C., 2 weeks (Table 6))?
**A.** 64.3%

**Q.** What about the “survival rate … 40° C. 4 week” value [1, 6] of the same compound?
**A.** 23.9%

**Q.** What about the “survival rate … 40° C. 4 week” value ([1]; phosphate buffer pH 7.0, 40° C., 4 weeks (Table 10)) of the same compound?
**A.** 33.0%

**Q.** And the “survival rate after correction for water, 40° C. 8 week” value ([1]; phosphate buffer pH 7.0, 40° C., 8 weeks (Table 6))?
**A.** 23.7%

**Q.** And the “survival rate … 40° C. 4 week” value [3]?
**A.** 37.9%

**Q.** And the “survival rate after correction for water, 40° C. 8 week” value [3]?
**A.** 15.6%

**Q.** What about the “survival rate after correction for water, 60° C. 1 week” value [3] of the same compound?
**A.** 26.4%

**Q.** What about the “survival rate after correction for water, 60° C. 2 week” value [3] of the same compound?
**A.** 14.6%

**Q.** What about the “survival rate after correction for water, 60° C. 1 week preservation” value ([4]; 1 week) of the same compound?
**A.** 26.6%

**Q.** And the “survival rate after correction for water, 60° C. 2 weeks preservation” value ([4]; 2 weeks)?
**A.** 15.8%

**Q.** What about the “survival rate after correction for water, 80° C. 8 week” value [2] of the same compound?
**A.** 21.3%

Reference: patent publication US20250263459A1, “STABILIZED PACAP PEPTIDE” (SENJU PHARMACEUTICAL CO., LTD., priority 2019, published 2025)
